{"source": "patent US20230263822A1", "about": "“MODULATION OF FACTOR 11 EXPRESSION” (Ionis Pharmaceuticals, Inc., priority 2008, published 2023)", "assay": "Hematology assays in cynomolgus monkeys (Example 45)", "format": "in vivo", "protocol": "Groups, each consisting of two male and three female monkeys, were injected subcutaneously with ISIS 416838, ISIS 416850, ISIS 416858, ISIS 416864, or ISIS 417002 in escalating doses. Antisense oligonucleotide was administered to the monkeys at 5 mg/kg three times per a week for week 1; 5 mg/kg twice per week for weeks 2 and 3; 10 mg/kg three times per week for week 4; 10 mg/kg twice per week for weeks 5 and 6; 25 mg/kg three times per week for week 7; and 25 mg/kg twice per week for weeks 8, 9, 10, 11, and 12. One control group, consisting of two male and three female monkeys, was injected subcutaneously with PBS according to the same dosing regimen. An additional experimental group, consisting of two male and three female monkeys, was injected subcutaneously with ISIS 416850 in a chronic, lower dose regimen. Antisense oligonucleotide was administered to the monkeys at 5 mg/kg three times per week for week 1; 5 mg/kg twice per week for week 2 and 3; 10 mg/kg three times per week for week 4; and 10 mg/kg twice per week for weeks 5 to 12. Body weights were measured weekly. Blood samples were collected 14 days and 5 days before the start of treatment and subsequently once per week for Factor 11 protein activity analysis in plasma, fibrinogen measurement, PT and aPTT measurements, bleeding times, and measurement of various hematologic factors. On day 85, the monkeys were euthanized by exsanguination while under deep anesthesia, and organs harvested for further analysis.\nThe ISIS oligonucleotide, ISIS 416850, given with the chronic dose regimen is distinguished from the other oligonucleotides with an asterisk (*).", "key": {"[1]": {"settings": "day 22, escalating dose regimen"}, "[2]": {"settings": "day 29, chronic dose regimen (*)"}, "[3]": {"settings": "day 29, escalating dose regimen"}, "[4]": {"settings": "day 36, chronic dose regimen (*)"}, "[5]": {"settings": "day 36, escalating dose regimen"}, "[6]": {"settings": "day 43, chronic dose regimen (*)"}}}
{"substance": "ISIS 416850: MOE gapmer, nucleobases 1275 to 1318 of SEQ ID NO: 1 (Table 8) (antisense TGCACAGTTTCTGGCAGGCC; MOE gapmer, wing and gap sizes not given here)", "values": [{"measurement": "reticulocytes", "setting": "day 22, chronic dose regimen (*)", "result": 1.0, "unit": "%"}, {"measurement": "MCH", "setting": "[1]", "result": 24, "unit": "pg"}, {"measurement": "MCHC", "setting": "[1]", "result": 28, "unit": "g/dL"}, {"measurement": "MCV", "setting": "[1]", "result": 83, "unit": "fL"}, {"measurement": "RBC count", "setting": "[1]", "result": "5e+06", "unit": "µL⁻¹"}, {"measurement": "WBC count", "setting": "[1]", "result": 10000, "unit": "µL⁻¹"}, {"measurement": "hematocrit", "setting": "[1]", "result": 41, "unit": "%"}, {"measurement": "hemoglobin", "setting": "[1]", "result": 11.6, "unit": "g/dL"}, {"measurement": "basophils", "setting": "day 29", "result": 0.2, "unit": "%"}, {"measurement": "eosinophils", "setting": "day 29", "result": 1.2, "unit": "%"}, {"measurement": "lymphocytes", "setting": "day 29", "result": 43, "unit": "%"}, {"measurement": "monocytes", "setting": "day 29", "result": 2.7, "unit": "%"}, {"measurement": "neutrophils", "setting": "day 29", "result": 53, "unit": "%"}, {"measurement": "platelet count", "setting": "day 29", "result": 475000, "unit": "µL⁻¹"}, {"measurement": "reticulocytes", "setting": "day 29", "result": 2.5, "unit": "%"}, {"measurement": "MCH", "setting": "[2]", "result": 23, "unit": "pg"}, {"measurement": "MCHC", "setting": "[2]", "result": 28, "unit": "g/dL"}, {"measurement": "MCV", "setting": "[2]", "result": 82, "unit": "fL"}, {"measurement": "RBC count", "setting": "[2]", "result": "5.2e+06", "unit": "µL⁻¹"}, {"measurement": "WBC count", "setting": "[2]", "result": 14000, "unit": "µL⁻¹"}, {"measurement": "basophils", "setting": "[2]", "result": 0.3, "unit": "%"}, {"measurement": "eosinophils", "setting": "[2]", "result": 0.8, "unit": "%"}, {"measurement": "hematocrit", "setting": "[2]", "result": 42, "unit": "%"}, {"measurement": "hemoglobin", "setting": "[2]", "result": 12.0, "unit": "g/dL"}, {"measurement": "lymphocytes", "setting": "[2]", "result": 53, "unit": "%"}, {"measurement": "monocytes", "setting": "[2]", "result": 2.7, "unit": "%"}, {"measurement": "neutrophils", "setting": "[2]", "result": 42, "unit": "%"}, {"measurement": "platelet count", "setting": "[2]", "result": 370000, "unit": "µL⁻¹"}, {"measurement": "reticulocytes", "setting": "[2]", "result": 1.4, "unit": "%"}, {"measurement": "MCH", "setting": "[3]", "result": 23, "unit": "pg"}, {"measurement": "MCHC", "setting": "[3]", "result": 28, "unit": "g/dL"}, {"measurement": "MCV", "setting": "[3]", "result": 83, "unit": "fL"}, {"measurement": "RBC count", "setting": "[3]", "result": "4.9e+06", "unit": "µL⁻¹"}, {"measurement": "WBC count", "setting": "[3]", "result": 11000, "unit": "µL⁻¹"}, {"measurement": "hematocrit", "setting": "[3]", "result": 41, "unit": "%"}, {"measurement": "hemoglobin", "setting": "[3]", "result": 11.5, "unit": "g/dL"}, {"measurement": "basophils", "setting": "day 36", "result": 0.3, "unit": "%"}, {"measurement": "eosinophils", "setting": "day 36", "result": 1.7, "unit": "%"}, {"measurement": "lymphocytes", "setting": "day 36", "result": 39, "unit": "%"}, {"measurement": "monocytes", "setting": "day 36", "result": 2.1, "unit": "%"}, {"measurement": "neutrophils", "setting": "day 36", "result": 57, "unit": "%"}, {"measurement": "platelet count", "setting": "day 36", "result": 505000, "unit": "µL⁻¹"}, {"measurement": "reticulocytes", "setting": "day 36", "result": 2.2, "unit": "%"}, {"measurement": "MCH", "setting": "[4]", "result": 23, "unit": "pg"}, {"measurement": "MCHC", "setting": "[4]", "result": 30, "unit": "g/dL"}, {"measurement": "MCV", "setting": "[4]", "result": 76, "unit": "fL"}, {"measurement": "RBC count", "setting": "[4]", "result": "5.3e+06", "unit": "µL⁻¹"}, {"measurement": "WBC count", "setting": "[4]", "result": 16000, "unit": "µL⁻¹"}, {"measurement": "basophils", "setting": "[4]", "result": 0.1, "unit": "%"}, {"measurement": "eosinophils", "setting": "[4]", "result": 0.4, "unit": "%"}, {"measurement": "hematocrit", "setting": "[4]", "result": 41, "unit": "%"}, {"measurement": "hemoglobin", "setting": "[4]", "result": 12.3, "unit": "g/dL"}, {"measurement": "lymphocytes", "setting": "[4]", "result": 26, "unit": "%"}, {"measurement": "monocytes", "setting": "[4]", "result": 1.5, "unit": "%"}, {"measurement": "neutrophils", "setting": "[4]", "result": 72, "unit": "%"}, {"measurement": "platelet count", "setting": "[4]", "result": 379000, "unit": "µL⁻¹"}, {"measurement": "reticulocytes", "setting": "[4]", "result": 1.3, "unit": "%"}, {"measurement": "MCH", "setting": "[5]", "result": 23, "unit": "pg"}, {"measurement": "MCHC", "setting": "[5]", "result": 29, "unit": "g/dL"}, {"measurement": "MCV", "setting": "[5]", "result": 80, "unit": "fL"}, {"measurement": "RBC count", "setting": "[5]", "result": "5.3e+06", "unit": "µL⁻¹"}, {"measurement": "WBC count", "setting": "[5]", "result": 10000, "unit": "µL⁻¹"}, {"measurement": "hematocrit", "setting": "[5]", "result": 42, "unit": "%"}, {"measurement": "hemoglobin", "setting": "[5]", "result": 12.2, "unit": "g/dL"}, {"measurement": "basophils", "setting": "day 43", "result": 0.3, "unit": "%"}, {"measurement": "eosinophils", "setting": "day 43", "result": 1.2, "unit": "%"}, {"measurement": "lymphocytes", "setting": "day 43", "result": 45, "unit": "%"}, {"measurement": "monocytes", "setting": "day 43", "result": 2.6, "unit": "%"}, {"measurement": "neutrophils", "setting": "day 43", "result": 50, "unit": "%"}, {"measurement": "platelet count", "setting": "day 43", "result": 490000, "unit": "µL⁻¹"}, {"measurement": "reticulocytes", "setting": "day 43", "result": 1.6, "unit": "%"}, {"measurement": "MCH", "setting": "[6]", "result": 23, "unit": "pg"}, {"measurement": "MCHC", "setting": "[6]", "result": 30, "unit": "g/dL"}, {"measurement": "MCV", "setting": "[6]", "result": 77, "unit": "fL"}, {"measurement": "RBC count", "setting": "[6]", "result": "5.2e+06", "unit": "µL⁻¹"}, {"measurement": "WBC count", "setting": "[6]", "result": 15000, "unit": "µL⁻¹"}, {"measurement": "basophils", "setting": "[6]", "result": 0.2, "unit": "%"}, {"measurement": "eosinophils", "setting": "[6]", "result": 0.4, "unit": "%"}, {"measurement": "hematocrit", "setting": "[6]", "result": 40, "unit": "%"}, {"measurement": "hemoglobin", "setting": "[6]", "result": 11.8, "unit": "g/dL"}, {"measurement": "lymphocytes", "setting": "[6]", "result": 36, "unit": "%"}]}
